“Also recorded” adds a separate entry of the source.

Common to all, as to type: cell-based
The test system of one series is CCRF-CEM. Briefly: NCI-60 in vitro tumor cell growth inhibition, CCRF-CEM (leukemia). Particulars: Homo sapiens, five concentration levels 10^−4–10^−8 M. As for the experimental part: (§1) All the synthesized thiazoles 3a–k were evaluated by the National Cancer Institute (Bethesda MD) for cytotoxicity against the NCI-60 cell line panel using standard protocols. Initially, the selected derivatives 3c,d,g,h,j,k were tested at a single dose (10^−5 M) on the full panel of approximately 60 human tumor cell lines derived from 9 human cancer cell types, that have been grouped in disease sub-panels including leukemia, non-small-cell lung, colon, central nervous system (CNS), melanoma, ovarian, renal, prostate and breast cancers (data not shown). Compounds 3d and 3k were further selected for full evaluation at five concentration levels (10^−4–10^−8 M).
(§2) The antitumor activity of compounds 3d and 3k was given by three parameters for each cell line: GI50 (the molar concentration of the compound that inhibits 50% net cell growth), TGI (the molar concentration of the compound leading to total inhibition of net cell growth), and LC50 (the molar concentration of the compound that induces 50% net cell death). The average values of mean graph midpoint (MG_MID) were calculated for each of these parameters.

The next series has as its system HCC-2998. Briefly: NCI-60 in vitro tumor cell growth inhibition, HCC-2998 (colon cancer). The following applies: Homo sapiens, five concentration levels. As for the experimental part: as §1, §2
A further series concerns 786-0. Briefly: NCI-60 in vitro tumor cell growth inhibition, 786-0 (renal cancer). The following applies: Homo sapiens, five concentration levels. As for the experimental part:
as §1, §2

A further series deals with SF-295. The experiment in a line: NCI-60 in vitro tumor cell growth inhibition, SF-295 (CNS cancer). The following applies: Homo sapiens, five concentration levels. The method, then: as §1, §2
Another series has as its system HCT-15. The experiment in a line: NCI-60 in vitro tumor cell growth inhibition, HCT-15 (colon cancer). Particulars: Homo sapiens, five concentration levels. As for the experimental part: as §1, §2
The test system of series [1] is human HepG2 hepatocarcinoma cells. The experiment in a line: MTT cell growth assay, HepG2. The following applies: 72 h, 0.1–10 μM. The method, then:
Cell growth inhibitory activity of compounds 3d and 3k was also investigated on human HepG2 hepatocarcinoma cells, a cell line not included in the NCI panel and of interest in the drug discovery because provided with a very active microsomal system for detoxification of xenobiotics. Monolayer cultures treated for 72 h with 0.1–10 μM concentrations of the compounds were examined by 3-(4,5-dimethylthiazol-2-yl)-2,5-diphenyltetrazolium bromide (MTT) assay for cell growth.
Human cell lines of hepatoma HepG2 and Chang liver were purchased from American Type Culture Collection, Rockville, MD, USA. Cells were grown in RPMI supplemented with 2 mM L-glutamine, 10% FBS, 100 U/mL penicillin, 100 μg/mL streptomycin and 5 μg/mL gentamicin. HepG2 culture medium also contained 1.0 mM sodium pyruvate. Cells were maintained in log phase by seeding twice a week at a density of 3 × 10^8 cells/L in humidified 5% CO2 atmosphere, at 37 °C. […] Cytotoxic activity of the compounds was determined by the MTT quantitative colorimetric assay based on the reduction of the 3-(4,5-dimethyl-2-thiazolyl)-2,5-diphenyl-2H-tetrazolium bromide (MTT) into purple formazan by mitochondrial dehydrogenases of living cells. […] The absorbance at 540 nm was measured in a microplate reader (Bio-RAD, Hercules, CA, USA). […]

A further series has as its system RXF393. Briefly: NCI-60 in vitro tumor cell growth inhibition, RXF393 (renal cancer). Particulars: Homo sapiens, RXF 393, five concentration levels. As for the experimental part: as §1, §2
For series [2], the system named is normal immortalized human liver cells (Chang). Briefly: MTT viability assay, Chang liver cells. Particulars: identical conditions to HepG2 (72 h, 0.1–10 μM). The method, then: Cell growth inhibitory activity of compounds 3d and 3k was also investigated on human HepG2 hepatocarcinoma cells, a cell line not included in the NCI panel and of interest in the drug discovery because provided with a very active microsomal system for detoxification of xenobiotics. Monolayer cultures treated for 72 h with 0.1–10 μM concentrations of the compounds were examined by 3-(4,5-dimethylthiazol-2-yl)-2,5-diphenyltetrazolium bromide (MTT) assay for cell growth. […] Human cell lines of hepatoma HepG2 and Chang liver were purchased from American Type Culture Collection, Rockville, MD, USA. Cells were grown in RPMI supplemented with 2 mM L-glutamine, 10% FBS, 100 U/mL penicillin, 100 μg/mL streptomycin and 5 μg/mL gentamicin. HepG2 culture medium also contained 1.0 mM sodium pyruvate. Cells were maintained in log phase by seeding twice a week at a density of 3 × 10^8 cells/L in humidified 5% CO2 atmosphere, at 37 °C. In all experiments, cells were made quiescent through overnight incubation before the treatment with the compounds or vehicle alone (control cells). No differences were found between cells treated with DMSO 0.1% and untreated cells in terms of cell number and viability. […] Briefly, HepG2 and Chang cells were plated at 5 × 10^4 cells/well in 96-well plates containing 200 μL RPMI. […] The absorbance at 540 nm was measured in a microplate reader (Bio-RAD, Hercules, CA, USA). […]
On the technique in general: Tetrazolium assays rely on reduction of a dye to a coloured formazan, in cell work by metabolically active cells.

A further series relates to OVCAR-5. Briefly: NCI-60 in vitro tumor cell growth inhibition, OVCAR-5 (ovarian cancer). Particulars: Homo sapiens, five concentration levels. The method, then:
as §1, §2

For another series, the system named is RPMI-8226. The experiment in a line: NCI-60 in vitro tumor cell growth inhibition, RPMI-8226 (leukemia). Particulars: Homo sapiens, five concentration levels 10^−4–10^−8 M. The method, then:
as §1, §2

Another series has as its system NCI-H522. Briefly: NCI-60 in vitro tumor cell growth inhibition, NCI-H522 (non-small cell lung cancer). Particulars: Homo sapiens, five concentration levels. The method, then:
as §1, §2

Another series concerns OVCAR-3. Briefly: NCI-60 in vitro tumor cell growth inhibition, OVCAR-3 (ovarian cancer). The following applies: Homo sapiens, five concentration levels. The method, then: as §1, §2
Another series relates to LOX IMVI. The experiment in a line: NCI-60 in vitro tumor cell growth inhibition, LOX IMVI (melanoma). The following applies: Homo sapiens, five concentration levels. As for the experimental part: as §1, §2
In the next series the test system is K-562. Briefly: NCI-60 in vitro tumor cell growth inhibition, K-562 (leukemia). The following applies: Homo sapiens, K562, five concentration levels 10^−4–10^−8 M. As for the experimental part: as §1, §2
For another series, the system named is ACHN. Briefly: NCI-60 in vitro tumor cell growth inhibition, ACHN (renal cancer). The following applies: Homo sapiens, five concentration levels. The method, then:
as §1, §2

The next series relates to COLO-205. Briefly: NCI-60 in vitro tumor cell growth inhibition, COLO-205 (colon cancer). The following applies: Homo sapiens, five concentration levels. The method, then: as §1, §2
A further series relates to DU-145. The experiment in a line: NCI-60 in vitro tumor cell growth inhibition, DU-145 (prostate cancer). Particulars: Homo sapiens, five concentration levels. The method, then: as §1, §2
The next series has as its system BT-549. The experiment in a line: NCI-60 in vitro tumor cell growth inhibition, BT-549 (breast cancer). Particulars: Homo sapiens, five concentration levels. As for the experimental part: as §1, §2
Another series has as its system SF-268. The experiment in a line: NCI-60 in vitro tumor cell growth inhibition, SF-268 (CNS cancer). The following applies: Homo sapiens, five concentration levels. The method, then:
as §1, §2

As a reminder, the GI50 is the concentration at which growth is held to half of that of the control. With `Cn1cc(-c2nc(-c3c[nH]c4ccccc34)cs2)c2cccnc21` [Compound 3k, 3-[4-(1H-Indol-3-yl)-1,3-thiazol-2-yl]-1-methyl-1H-pyrrolo[2,3-b]pyridine], the GI50 came out at 430 nM in the series with CCRF-CEM; 1180 nM with HCC-2998; 720 nM with 786-0; 310 nM in the series with SF-295; 290 nM in the series on HCT-15; 210 nM in series [1]. The GI50 was 520 nM in the series with RXF393; 2390 nM in the series on OVCAR-5; 650 nM in the series with RPMI-8226; 50 nM with NCI-H522; 250 nM in the series on OVCAR-3; 510 nM in the series with LOX IMVI. Moreover, the GI50 in the series on K-562 was 120 nM; with ACHN it was 510 nM; in the series with COLO-205, 190 nM; with DU-145 it was 560 nM; with BT-549 it was 440 nM; in the series with SF-268, 940 nM. The “viability of normal immortalized human liver cells (Chang)” value in series [2] is on record as “did not affect normal immortalized human liver cells (Chang); also recorded: did not substantially impaired viability”.

`Cn1cc(-c2csc(-c3cn(C)c4ncccc34)n2)c2ccccc21` [Compound 3d, 1-Methyl-3-[4-(1-methyl-1H-indol-3-yl)-1,3-thiazol-2-yl]-1H-pyrrolo[2,3-b]pyridine]: the GI50 is 400 nM in the series on CCRF-CEM; 1130 nM in the series on HCC-2998; 970 nM in the series on 786-0; 240 nM with SF-295; 170 nM in the series with HCT-15; 1690 nM in series [1]. For the same molecule, the GI50 with RXF393 amounted to 330 nM; with OVCAR-5, 1410 nM; with RPMI-8226 it was 450 nM; with NCI-H522 it was 40 nM; in the series on OVCAR-3, 100 nM; in the series on LOX IMVI, 540 nM. Besides, the GI50 in the series with K-562 turned out to be 70 nM; in the series on ACHN it was 720 nM; with COLO-205, 190 nM; in the series on DU-145, 390 nM; with BT-549, 470 nM; in the series on SF-268 it was 2440 nM. The “viability of normal immortalized human liver cells (Chang)” value in series [2] is reported as “did not affect normal immortalized human liver cells (Chang); also recorded: did not substantially impaired viability”.

Source of the values: publication PMC4413193, “3-[4-(1H-Indol-3-yl)-1,3-thiazol-2-yl]-1H-pyrrolo[2,3-b]pyridines, Nortopsentin Analogues with Antiproliferative Activity” (Marine Drugs, 2015).
